# Measurements: patent publication US10052320B2, “Substituted quinoxalines as FGFR kinase inhibitors” (ASTEX THERAPEUTICS LIMITED, priority 2011, dated 2018)
# Tests used:
# [1] = target: Ba/F3-FGFR4-transfected cells (Homo sapiens, UniProt P22455); assay: Ba/F3-FGFR4 cellular proliferation assay, Alamar Blue; type: cell-based
# Outline: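 Ba/F3 cells transfected with FGFR4, 20000 cells/well in phenol red-free RPMI-1640 with 10% FBS, were exposed to compound for 24 h at 37° C, 5% CO2. Alamar Blue (resazurin) was then added for 4 h, and fluorescence was read at ex 540/em 590 nm.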
# FGFR2 (h) = FGFR2 (h) (Homo sapiens, UniProt P21802); assay: FGFR2 (enzymatic assay), TR-FRET; type: biochemical; details: read-out: FGFR 2 pIC50 (converted)
# Chain of FGFR2 (h) (P21802 22-821): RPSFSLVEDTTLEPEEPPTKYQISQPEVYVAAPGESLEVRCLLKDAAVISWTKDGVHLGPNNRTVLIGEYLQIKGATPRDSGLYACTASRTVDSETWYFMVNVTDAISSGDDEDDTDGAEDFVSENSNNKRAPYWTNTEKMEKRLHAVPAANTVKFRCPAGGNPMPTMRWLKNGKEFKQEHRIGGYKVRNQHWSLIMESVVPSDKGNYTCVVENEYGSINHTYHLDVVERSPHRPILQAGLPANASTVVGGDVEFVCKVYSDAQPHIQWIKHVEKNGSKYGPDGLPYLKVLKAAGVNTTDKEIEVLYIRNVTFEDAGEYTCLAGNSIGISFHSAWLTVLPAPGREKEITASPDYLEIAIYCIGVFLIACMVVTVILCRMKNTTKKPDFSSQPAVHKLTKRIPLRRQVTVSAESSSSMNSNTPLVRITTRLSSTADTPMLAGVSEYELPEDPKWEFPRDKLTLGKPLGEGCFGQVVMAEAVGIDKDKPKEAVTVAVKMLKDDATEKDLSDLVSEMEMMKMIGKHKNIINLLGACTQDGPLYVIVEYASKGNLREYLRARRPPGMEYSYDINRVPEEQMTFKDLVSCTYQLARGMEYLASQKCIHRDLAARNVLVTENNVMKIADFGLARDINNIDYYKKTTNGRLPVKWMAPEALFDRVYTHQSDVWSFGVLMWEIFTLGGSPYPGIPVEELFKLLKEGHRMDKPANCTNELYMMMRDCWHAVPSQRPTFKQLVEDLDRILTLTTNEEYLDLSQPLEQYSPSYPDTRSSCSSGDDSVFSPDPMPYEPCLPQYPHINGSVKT
# Procedure: In a final reaction volume of 30 μL, FGFR2 (h) (150 ng/ml) was incubated with 50 mM HEPES pH 7.5, 6 mM MnCl2, 1 mM DTT, 0.1 mM Na3VO4, 0.01% Triton-X-100, 500 nM Btn-Flt3 and 0.4 μM ATP in the presence of compound (1% DMSO final). […] Time-Resolved Fluorescence Resonance Energy Transfer (TR-FRET) signal (ex340 nm. Em 620 nm, em 655 nm) was measured afterwards and results are expressed in (Relative Fluorescence Units).
# FGFR4 (h) = FGFR4 (h) (Homo sapiens, UniProt P22455); assay: FGFR4 (enzymatic assay), TR-FRET; type: biochemical; details: read-out: FGFR 4 pIC50 (converted)
# Chain of FGFR4 (h) (P22455 22-802): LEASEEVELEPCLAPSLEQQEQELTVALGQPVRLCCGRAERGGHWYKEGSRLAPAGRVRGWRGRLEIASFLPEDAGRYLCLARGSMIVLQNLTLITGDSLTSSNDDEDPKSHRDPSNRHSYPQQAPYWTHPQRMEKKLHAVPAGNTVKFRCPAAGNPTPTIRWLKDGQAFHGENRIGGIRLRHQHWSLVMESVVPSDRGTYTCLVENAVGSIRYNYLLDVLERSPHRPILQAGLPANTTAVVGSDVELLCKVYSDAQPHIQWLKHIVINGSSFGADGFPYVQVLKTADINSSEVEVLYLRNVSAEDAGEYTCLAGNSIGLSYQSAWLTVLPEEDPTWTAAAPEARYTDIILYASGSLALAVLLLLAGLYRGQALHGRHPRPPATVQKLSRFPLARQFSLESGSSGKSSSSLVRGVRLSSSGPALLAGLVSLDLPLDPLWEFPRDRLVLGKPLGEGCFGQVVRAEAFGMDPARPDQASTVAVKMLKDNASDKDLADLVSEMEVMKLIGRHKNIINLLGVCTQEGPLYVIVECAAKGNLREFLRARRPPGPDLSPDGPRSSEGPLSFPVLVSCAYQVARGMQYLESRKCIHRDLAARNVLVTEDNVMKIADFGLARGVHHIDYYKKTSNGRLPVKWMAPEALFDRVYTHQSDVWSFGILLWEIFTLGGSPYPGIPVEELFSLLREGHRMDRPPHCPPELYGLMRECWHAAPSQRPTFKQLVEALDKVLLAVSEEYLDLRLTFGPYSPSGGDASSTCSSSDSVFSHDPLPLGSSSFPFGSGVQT
# Procedure: (§1) In a final reaction volume of 30 μL, FGFR4 (h) (60 ng/ml) was incubated with 50 mM HEPES pH 7.5, 6 mM MnCl2, 1 mM DTT, 0.1 mM Na3VO4, 0.01% Triton-X-100, 500 nM Btn-Flt3 and 5 μM ATP in the presence of compound (1% DMSO final). […] Time-Resolved Fluorescence Resonance Energy Transfer (TR-FRET) signal (ex340 nm. Em 620 nm, em 655 nm) was measured afterwards and results are expressed in RFU (Relative Fluorescence Units).
# FGFR3 (h) = FGFR3 (h) (Homo sapiens, UniProt P22607); assay: FGFR3 (enzymatic assay), TR-FRET; type: biochemical; details: read-out: FGFR 3 pIC50 (converted)
# Chain of FGFR3 (h) (P22607 23-806): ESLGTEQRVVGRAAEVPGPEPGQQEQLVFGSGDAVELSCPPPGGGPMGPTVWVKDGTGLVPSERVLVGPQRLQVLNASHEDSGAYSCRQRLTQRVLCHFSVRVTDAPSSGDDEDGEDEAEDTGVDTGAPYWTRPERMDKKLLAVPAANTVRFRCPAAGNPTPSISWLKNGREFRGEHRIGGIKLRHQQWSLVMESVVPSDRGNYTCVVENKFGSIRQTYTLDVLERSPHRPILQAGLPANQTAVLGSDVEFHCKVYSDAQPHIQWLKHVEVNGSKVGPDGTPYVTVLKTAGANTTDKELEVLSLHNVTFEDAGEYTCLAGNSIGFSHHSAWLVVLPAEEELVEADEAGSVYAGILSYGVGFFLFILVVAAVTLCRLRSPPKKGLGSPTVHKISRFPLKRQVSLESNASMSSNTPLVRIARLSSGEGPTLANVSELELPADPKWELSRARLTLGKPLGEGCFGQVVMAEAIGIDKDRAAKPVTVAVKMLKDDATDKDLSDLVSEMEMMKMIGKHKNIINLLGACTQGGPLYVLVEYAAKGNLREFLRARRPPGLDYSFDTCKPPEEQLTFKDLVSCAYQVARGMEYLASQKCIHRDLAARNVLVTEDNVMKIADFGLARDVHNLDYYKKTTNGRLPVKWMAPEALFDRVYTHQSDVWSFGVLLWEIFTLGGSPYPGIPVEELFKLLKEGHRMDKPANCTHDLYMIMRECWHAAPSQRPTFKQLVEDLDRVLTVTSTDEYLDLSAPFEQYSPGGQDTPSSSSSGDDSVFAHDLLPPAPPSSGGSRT
# Procedure: as §1, with “μL, FGFR3” for “μL, FGFR4”, “(h) (40” for “(h) (60”, “and 25” for “and 5”
# [2] = target: T1, Ba/F3-Flt3-transfected cells (Homo sapiens, UniProt P36888, cells depend on it, form not given); assay: Ba/F3-Flt3 (minus IL3) cellular proliferation assay, Alamar Blue; type: cell-based; details: minus IL3
# T1 sequence (P36888 1-993): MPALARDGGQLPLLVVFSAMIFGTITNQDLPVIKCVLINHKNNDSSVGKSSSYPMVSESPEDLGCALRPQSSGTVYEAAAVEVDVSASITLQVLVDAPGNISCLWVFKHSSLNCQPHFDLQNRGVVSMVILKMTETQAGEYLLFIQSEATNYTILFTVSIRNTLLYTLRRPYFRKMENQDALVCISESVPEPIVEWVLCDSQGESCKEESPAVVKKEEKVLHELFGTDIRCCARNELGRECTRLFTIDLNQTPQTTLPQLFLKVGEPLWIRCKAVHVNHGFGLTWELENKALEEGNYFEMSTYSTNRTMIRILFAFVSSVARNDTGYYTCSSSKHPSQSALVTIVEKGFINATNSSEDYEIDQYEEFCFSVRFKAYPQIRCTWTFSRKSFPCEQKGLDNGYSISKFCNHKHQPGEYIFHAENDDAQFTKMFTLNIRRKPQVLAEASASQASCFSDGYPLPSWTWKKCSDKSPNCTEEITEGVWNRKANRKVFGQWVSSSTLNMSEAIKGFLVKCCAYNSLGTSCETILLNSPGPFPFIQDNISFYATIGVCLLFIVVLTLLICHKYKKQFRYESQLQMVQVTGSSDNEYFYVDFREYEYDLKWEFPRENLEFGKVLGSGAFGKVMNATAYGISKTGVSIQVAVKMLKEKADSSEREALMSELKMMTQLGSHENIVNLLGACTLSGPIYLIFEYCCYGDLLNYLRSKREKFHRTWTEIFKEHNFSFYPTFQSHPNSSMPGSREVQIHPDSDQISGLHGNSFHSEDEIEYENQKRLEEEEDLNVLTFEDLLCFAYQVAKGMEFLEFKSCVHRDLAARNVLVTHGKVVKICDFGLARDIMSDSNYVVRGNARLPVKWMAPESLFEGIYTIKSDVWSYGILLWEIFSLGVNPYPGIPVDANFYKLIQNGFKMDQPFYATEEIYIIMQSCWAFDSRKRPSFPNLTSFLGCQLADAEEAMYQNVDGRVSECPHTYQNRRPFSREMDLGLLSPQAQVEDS
# Chain of Ba/F3-FGFR4-transfected cells (P22455 whole entry, change not shown): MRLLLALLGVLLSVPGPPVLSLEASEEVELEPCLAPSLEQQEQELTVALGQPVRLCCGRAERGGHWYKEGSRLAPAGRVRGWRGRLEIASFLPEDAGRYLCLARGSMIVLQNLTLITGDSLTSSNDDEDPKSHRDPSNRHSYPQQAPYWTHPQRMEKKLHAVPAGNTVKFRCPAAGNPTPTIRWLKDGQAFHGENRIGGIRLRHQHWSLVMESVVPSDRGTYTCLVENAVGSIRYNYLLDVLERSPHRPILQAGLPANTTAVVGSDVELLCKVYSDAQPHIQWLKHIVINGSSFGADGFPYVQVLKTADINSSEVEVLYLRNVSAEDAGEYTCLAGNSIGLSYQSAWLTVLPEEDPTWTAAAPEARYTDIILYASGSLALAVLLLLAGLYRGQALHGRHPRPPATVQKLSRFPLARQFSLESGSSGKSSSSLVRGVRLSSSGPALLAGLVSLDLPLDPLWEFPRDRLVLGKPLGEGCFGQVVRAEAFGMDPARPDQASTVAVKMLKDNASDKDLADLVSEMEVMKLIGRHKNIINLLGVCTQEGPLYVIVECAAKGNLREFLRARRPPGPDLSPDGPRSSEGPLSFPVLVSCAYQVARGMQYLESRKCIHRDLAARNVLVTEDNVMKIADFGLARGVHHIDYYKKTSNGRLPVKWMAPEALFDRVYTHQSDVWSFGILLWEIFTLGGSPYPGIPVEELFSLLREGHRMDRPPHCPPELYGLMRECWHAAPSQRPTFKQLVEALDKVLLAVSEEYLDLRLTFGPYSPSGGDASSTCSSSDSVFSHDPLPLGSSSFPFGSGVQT
Compound,BAF3-FGFR4 pIC50 [1],IC50 (FGFR2 (h)) [nM],IC50 (FGFR4 (h)) [nM],IC50 (FGFR3 (h)) [nM],BAF3-FLT3 (MIN IL3) 96 well pIC50 [2],BAF3-FLT3 (MIN IL3) 384 well pIC50 [2]
COc1cc(OC)cc(N(CC2CC2)c2ccc3ncc(-c4c[nH]cn4)nc3c2)c1 [Compound 39],<5,81.3,145,29.5,<5,<5
COc1cc(OC)cc(N(CCO)c2ccc3ncc(-c4ccc(N5CCN(C)CC5)nc4)nc3c2)c1 [Compound 163],<5,15.8,120,7.94,–,5.32
COc1cc(OC)cc(N(CCNC(C)C)c2ccc3ncc(C(=O)N4CCOCC4)nc3c2)c1 [Compound 181],<5,490,> 1000,501,–,<5
COc1cc(OC)cc(N(CC2CC2)c2ccc3ncc(-c4cccc(N5CCOCC5)c4)nc3c2)c1 [Compound 92],<5,661,2400,263,<5,<5
COc1cc(OC)cc(N(CCNC(C)C)c2ccc3ncc(C(=O)NCCN4CCOCC4)nc3c2)c1 [Compound 160],5.8,57.5,309,91.2,–,<5
COc1cc(OC)cc(N(CCN2CCOCC2)c2ccc3ncc(-c4ccc(NC(=O)N5CCOCC5)nc4)nc3c2)c1 [Compound 35],6.0,26.3,67.6,10,–,<5
"COCC(O)CN(c1cc(OC)cc(OC)c1)c1ccc2ncc(-c3cccnc3)nc2c1 (single isomer, unassigned) [Compound 47]",5.5,17.4,115,22.4,–,<5
COc1cc(OC)cc(N(CCCNC(C)C)c2ccc3ncc(-c4ccnc(N)c4)nc3c2)c1 [Compound 143],6.9,3.39,9.55,2.51,–,~5.25
COc1cc(OC)cc(N(CCCNCC(F)(F)F)c2ccc3ncc(C(=O)NCCN4CCOCC4)nc3c2)c1 [Compound 158],5.1,661,> 1000,537,–,<5
COc1cc(OC)cc(N(CCCO)c2ccc3ncc(-c4ccnc(C(=O)NCCOCCO)c4)nc3c2)c1 [Compound 186],5.57,36.3,126,16.2,–,<5
